From PubChem BioAssay (NCI)
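Method: 48-hour compound exposure of cells in 96-well plates, five concentrations, linear interpolation of endpoints. Abbreviation: GI50, concentration required for 50% inhibition of growth. TGI marks complete inhibition of growth.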

Legend:
Assay in all cases: inhibition of tumour cell growth, NCI panel, 48 h
SK-MEL-5 melanoma = system: SK-MEL-5 melanoma
SK-OV-3 ovarian = system: SK-OV-3 ovarian
SK-MEL-28 melanoma = system: SK-MEL-28 melanoma
HS 578T breast = system: HS 578T breast
K-562 leukemia = system: K-562 leukemia
HOP-62 NSCLC = system: HOP-62 NSCLC
NCI-H522 lung = system: NCI-H522 lung
RPMI-8226 leukemia = system: RPMI-8226 leukemia
HCT-15 colon = system: HCT-15 colon
A549 NSCLC = system: A549 NSCLC
OVCAR-8 ovarian = system: OVCAR-8 ovarian
HOP-92 NSCLC = system: HOP-92 NSCLC
NCI-H226 lung = system: NCI-H226 lung
KM12 colon = system: KM12 colon
MOLT-4 leukemia = system: MOLT-4 leukemia
RXF 393 renal = system: RXF 393 renal
LOX IMVI melanoma = system: LOX IMVI melanoma
SR leukemia = system: SR leukemia
U251 CNS = system: U251 CNS
MDA-MB-435 = system: MDA-MB-435
SNB-19 CNS = system: SNB-19 CNS
BT-549 breast = system: BT-549 breast
TK-10 renal = system: TK-10 renal
OVCAR-5 ovarian = system: OVCAR-5 ovarian
UACC-62 melanoma = system: UACC-62 melanoma
DU-145 prostate = system: DU-145 prostate
CAKI-1 renal = system: CAKI-1 renal
SN12C renal = system: SN12C renal
HT29 colon = system: HT29 colon
SF-268 CNS = system: SF-268 CNS
ACHN renal = system: ACHN renal
A498 renal = system: A498 renal
IGROV1 ovarian = system: IGROV1 ovarian
NCI-H460 lung = system: NCI-H460 lung
HCT-116 colon = system: HCT-116 colon
MCF7 breast = system: MCF7 breast
UO-31 renal = system: UO-31 renal
MDA-MB-231 breast = system: MDA-MB-231 breast
OVCAR-4 ovarian = system: OVCAR-4 ovarian
SF-539 CNS = system: SF-539 CNS
OVCAR-3 ovarian = system: OVCAR-3 ovarian
COLO 205 colon = system: COLO 205 colon
PC-3 prostate = system: PC-3 prostate
SF-295 CNS = system: SF-295 CNS
NCI-H23 lung = system: NCI-H23 lung
NCI/ADR-RES ovarian = system: NCI/ADR-RES ovarian
EKVX NSCLC = system: EKVX NSCLC
HL-60(TB) leukemia = system: HL-60(TB) leukemia
SNB-75 CNS = system: SNB-75 CNS
M14 melanoma = system: M14 melanoma
SW-620 colon = system: SW-620 colon
SK-MEL-2 melanoma = system: SK-MEL-2 melanoma

`Nc1cc(N)c2nc(-c3ccccc3)c(Sc3ccc(F)cc3)nc2c1` gave a GI50 (SK-MEL-5 melanoma) of 15.6 µM, a TGI (SK-MEL-5 melanoma) of 33.4 µM and a GI50 (SK-OV-3 ovarian) of 15.7 µM. It also gave a TGI (SK-OV-3 ovarian) of 31.6 µM, a GI50 (SK-MEL-28 melanoma) of 23.4 µM and a TGI (SK-MEL-28 melanoma) of 53.4 µM. The GI50 (HS 578T breast) was 27 µM, the TGI (HS 578T breast) was 62 µM and the GI50 (K-562 leukemia) was 39.6 µM. The TGI (K-562 leukemia) was over 100 µM, the GI50 (HOP-62 NSCLC) was 16.6 µM and the TGI (HOP-62 NSCLC) was 34.3 µM. It also gave a GI50 (NCI-H522 lung) of over 100 µM, a TGI (NCI-H522 lung) of over 100 µM and a GI50 (RPMI-8226 leukemia) of 28.3 µM. For the same molecule, the TGI (RPMI-8226 leukemia) was 81.5 µM, the GI50 (HCT-15 colon) was 13.4 µM and the TGI (HCT-15 colon) was 27.4 µM. For the same molecule, the GI50 (A549 NSCLC) was 13.5 µM, the TGI (A549 NSCLC) was 30.9 µM and the GI50 (OVCAR-8 ovarian) was 16.7 µM. It also gave a TGI (OVCAR-8 ovarian) of 34.9 µM, a GI50 (HOP-92 NSCLC) of 22.9 µM and a TGI (HOP-92 NSCLC) of 54.8 µM. It also gave a GI50 (NCI-H226 lung) of 19 µM, a TGI (NCI-H226 lung) of 46.4 µM and a GI50 (KM12 colon) of 20.8 µM. It also gave a TGI (KM12 colon) of 48.5 µM, a GI50 (MOLT-4 leukemia) of over 100 µM and a TGI (MOLT-4 leukemia) of over 100 µM. For the same molecule, the GI50 (RXF 393 renal) was 13.3 µM, the TGI (RXF 393 renal) was 29.3 µM and the GI50 (LOX IMVI melanoma) was 22.7 µM. For the same molecule, the TGI (LOX IMVI melanoma) was 41.2 µM, the GI50 (SR leukemia) was 35.2 µM and the TGI (SR leukemia) was over 100 µM. It also gave a GI50 (U251 CNS) of 16.4 µM, a TGI (U251 CNS) of 31.7 µM and a GI50 (MDA-MB-435) of 16.3 µM. It also gave a TGI (MDA-MB-435) of 32.9 µM, a GI50 (SNB-19 CNS) of 20 µM and a TGI (SNB-19 CNS) of 41.7 µM. For the same molecule, the GI50 (BT-549 breast) was 22 µM, the TGI (BT-549 breast) was 44.1 µM and the GI50 (TK-10 renal) was 17.4 µM. For the same molecule, the TGI (TK-10 renal) was 42.6 µM, the GI50 (OVCAR-5 ovarian) was 19 µM and the TGI (OVCAR-5 ovarian) was 46.1 µM. It also gave a GI50 (UACC-62 melanoma) of 16.7 µM, a TGI (UACC-62 melanoma) of 31.8 µM and a GI50 (DU-145 prostate) of 19.8 µM. The TGI (DU-145 prostate) was 37.7 µM, the GI50 (CAKI-1 renal) was 18.1 µM and the TGI (CAKI-1 renal) was 36.6 µM. For the same molecule, the GI50 (SN12C renal) was 17.6 µM, the TGI (SN12C renal) was 35.4 µM and the GI50 (HT29 colon) was 17.8 µM. The TGI (HT29 colon) was 45.9 µM, the GI50 (SF-268 CNS) was 17.6 µM and the TGI (SF-268 CNS) was 38.9 µM. It also gave a GI50 (ACHN renal) of 14.2 µM, a TGI (ACHN renal) of 27.7 µM and a GI50 (A498 renal) of 27.5 µM. The TGI (A498 renal) was 46 µM, the GI50 (IGROV1 ovarian) was 25 µM and the TGI (IGROV1 ovarian) was over 100 µM. The GI50 (NCI-H460 lung) was 21.7 µM, the TGI (NCI-H460 lung) was 65.8 µM and the GI50 (HCT-116 colon) was 14.7 µM. For the same molecule, the TGI (HCT-116 colon) was 28.3 µM, the GI50 (MCF7 breast) was 20 µM and the TGI (MCF7 breast) was 62.5 µM. The GI50 (UO-31 renal) was 32 µM, the TGI (UO-31 renal) was over 100 µM and the GI50 (MDA-MB-231 breast) was 17.5 µM. It also gave a TGI (MDA-MB-231 breast) of 38 µM, a GI50 (OVCAR-4 ovarian) of 22.9 µM and a TGI (OVCAR-4 ovarian) of 55.9 µM. It also gave a GI50 (SF-539 CNS) of 21.3 µM, a TGI (SF-539 CNS) of 40 µM and a GI50 (OVCAR-3 ovarian) of 16.3 µM. The TGI (OVCAR-3 ovarian) was 33.6 µM, the GI50 (COLO 205 colon) was 22.1 µM and the TGI (COLO 205 colon) was 47.9 µM. It also gave a GI50 (PC-3 prostate) of 29.4 µM, a TGI (PC-3 prostate) of over 100 µM and a GI50 (SF-295 CNS) of 13.9 µM. The TGI (SF-295 CNS) was 29.9 µM, the GI50 (NCI-H23 lung) was 19 µM and the TGI (NCI-H23 lung) was 39.4 µM. The GI50 (NCI/ADR-RES ovarian) was 16.6 µM, the TGI (NCI/ADR-RES ovarian) was 34.7 µM and the GI50 (EKVX NSCLC) was 20.5 µM. The TGI (EKVX NSCLC) was 41.2 µM, the GI50 (HL-60(TB) leukemia) was 39.3 µM and the TGI (HL-60(TB) leukemia) was over 100 µM. The GI50 (SNB-75 CNS) was 21.1 µM, the TGI (SNB-75 CNS) was 47.8 µM and the GI50 (M14 melanoma) was 15.9 µM. The TGI (M14 melanoma) was 30.8 µM, the GI50 (SW-620 colon) was 22.8 µM and the TGI (SW-620 colon) was 49.6 µM. It also gave a GI50 (SK-MEL-2 melanoma) of 38.4 µM and a TGI (SK-MEL-2 melanoma) of over 100 µM.
